In US4774238A, “Heterocyclic-methylene-penems” (Beecham Group plc, priority 1985, dated 1988):

Assay: Solubility of the penem free acid in water
Format: physicochemical

## Cn1cc(/C=C2/C(=O)N3C(C(=O)O)=CS[C@H]23)nn1 [penem free acid, Crystalline (5R) (Z)-6-(1-Methyl-1,2,3-triazol-4-ylmethylene)penem-3-carboxylic acid]
  solubility in water: only sparingly soluble
